Structures can show the parent of a compound that is named as a salt.
target: human norepinephrine transporter (hNET) (Homo sapiens, UniProt P23975); test: hNET uptake, Protocol B: cell based norepinephrine reuptake assay using recombinant hNET (MDCK-Net6 cells); conditions: MDCK-Net6, read-out: NE uptake (Protocol B) % inhibition @ 6 uM
Sequence (P23975 whole entry): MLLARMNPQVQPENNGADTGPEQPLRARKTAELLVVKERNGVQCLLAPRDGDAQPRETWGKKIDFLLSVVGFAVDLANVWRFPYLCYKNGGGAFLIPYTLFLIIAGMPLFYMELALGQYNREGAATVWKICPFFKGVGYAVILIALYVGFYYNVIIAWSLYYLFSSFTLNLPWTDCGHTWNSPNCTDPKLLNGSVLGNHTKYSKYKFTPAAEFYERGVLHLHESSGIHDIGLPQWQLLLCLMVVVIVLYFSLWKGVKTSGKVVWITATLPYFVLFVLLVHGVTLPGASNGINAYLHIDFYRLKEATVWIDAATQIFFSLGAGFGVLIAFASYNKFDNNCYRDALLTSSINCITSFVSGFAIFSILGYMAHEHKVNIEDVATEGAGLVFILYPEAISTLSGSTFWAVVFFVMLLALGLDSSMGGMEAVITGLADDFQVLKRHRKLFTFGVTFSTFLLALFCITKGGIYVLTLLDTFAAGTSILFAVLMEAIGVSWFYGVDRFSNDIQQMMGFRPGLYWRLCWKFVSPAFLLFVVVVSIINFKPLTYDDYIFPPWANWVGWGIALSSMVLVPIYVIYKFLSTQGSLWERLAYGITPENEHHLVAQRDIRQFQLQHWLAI

| inhibition at 6 µM | SMILES |
| --- | --- |
| 49% | CN(C)CCCCCN1c2ccccc2N(c2ccc(F)cc2Cl)S1(=O)=O [Example 90, 5-[3-(2-chloro-4-fluorophenyl)-2,2-dioxido-2,1,3-benzothiadiazol-1(3H)-yl]-N,N-dimethylpentan-1-amine hydrochloride] |

same assay, conditions: NE uptake (Protocol B) IC50 (nM), MDCK-Net6 cells, 3H-NE 16 nM

| SMILES | IC50 |
| --- | --- |
| CNCCCN1c2c(F)cccc2N(c2ccc(F)cc2F)S1(=O)=O [Example 78, 3-[3-(2,4-Difluorophenyl)-7-fluoro-2,2-dioxido-2,1,3-benzothiadiazol-1(3H)-yl]-N-methylpropan-1-amine hydrochloride] | 45 nM |
| Cc1cc(F)ccc1N1c2ccccc2N(CCCN)S1(=O)=O [Example 63, 3-[3-(4-fluoro-2-methylphenyl)-2,2-dioxido-2,1,3-benzothiadiazol-1(3H)-yl]propan-1-amine] | 324 nM |
| NCCCN1c2cccc(F)c2N(c2ccccc2F)S1(=O)=O [Example 74, 3-[4-fluoro-3-(2-fluorophenyl)-2,2-dioxido-2,1,3-benzothiadiazol-1(3H)-yl]propan-1-amine hydrochloride] | 2.7 nM |
| CNCCCN1c2c(F)cccc2N(c2ccccc2F)S1(=O)=O [Example 76, 3-[7-fluoro-3-(2-fluorophenyl)-2,2-dioxido-2,1,3-benzothiadiazol-1(3H)-yl]-N-methylpropan-1-amine] | 5.24 nM |
| CNCCCN1c2cccnc2N(c2ccccc2)S1(=O)=O [Example 24, 3-(2,2-dioxido-3-phenyl[1,2,5]thiadiazolo[3,4-b]pyridin-1(3H)-yl)-N-methylpropan-1-amine] | 60.9 nM |
| CNCCCN1c2ccccc2N(c2c(F)cc(F)cc2F)S1(=O)=O [Example 77, 3-[2,2-Dioxido-3-(2,4,6-trifluorophenyl)-2,1,3-benzothiadiazol-1(3H)-yl]-N-methylpropan-1-amine hydrochloride] | 15 nM |
| CNCCCN1c2ccc(C)cc2N(c2ccccc2)S1(=O)=O [Example 38, N-methyl-3-(5-methyl-2,2-dioxido-3-phenyl-2,1,3-benzothiadiazol-1(3H)-yl)propan-1-amine] | 13.9 nM |
| CNCCCN1c2cc(C#N)ccc2N(c2ccccc2)S1(=O)=O [Example 43, 3-[3-(methylamino)propyl]-1-phenyl-1,3-dihydro-2,1,3-benzothiadiazole-5-carbonitrile 2,2-dioxide] | 1320 nM |

Results, then the compound that gave them:

| IC50 | SMILES |
| --- | --- |
| 411 nM | CN(C)CCCCN1c2ccccc2N(c2ccc(F)cc2F)S1(=O)=O [Example 120, 4-[3-(2,4-difluorophenyl)-2,2-dioxido-2,1,3-benzothiadiazol-1(3H)-yl]-N,N-dimethylbutan-1-amine hydrochloride] |
| 3 nM | CNCCCCN1c2ccccc2N(c2ccc(O)cc2F)S1(=O)=O [Example 93, 3-fluoro-4-{3-[4-(methylamino)butyl]-2,2-dioxido-2,1,3-benzothiadiazol-1(3H)-yl}phenol hydrochloride] |
| 82 nM | CNCCCCN1c2ccccc2N(c2ccc(F)cc2Cl)S1(=O)=O [Example 87, 4-[3-(2-chloro-4-fluorophenyl)-2,2-dioxido-2,1,3-benzothiadiazol-1(3H)-yl]-N-methylbutan-1-amine hydrochloride] |
| 26 nM | NCCCCCCN1c2ccccc2N(c2ccccc2F)S1(=O)=O [Example 102, 6-[3-(2-fluorophenyl)-2,2-dioxido-2,1,3-benzothiadiazol-1(3H)-yl]hexan-1-amine] |
| 21 nM | O=S1(=O)N(CCCCNC2CC2)c2ccccc2N1c1c(F)cccc1F [Example 86, N-{4-[3-(2,6-Difluorophenyl)-2,2-dioxido-2,1,3-benzothiadiazol-1(3H)-yl]butyl}cyclopropanamine hydrochloride] |
| 1160 nM | CNCCCCCCN1c2ccccc2N(c2ccccc2F)S1(=O)=O [Example 101, 6-[3-(2-fluorophenyl)-2,2-dioxido-2,1,3-benzothiadiazol-1(3H)-yl]-N-methylhexan-1-amine] |
| 7190 nM | CN(C)CCCCCN1c2ccccc2N(c2ccc(F)cc2F)S1(=O)=O [Example 117, 5-[3-(2,4-difluorophenyl)-2,2-dioxido-2,1,3-benzothiadiazol-1(3H)-yl]-N,N-dimethylpentan-1-amine hydrochloride] |
